Test results taken from paper PMC8297402, “Trifluoromethyl-substituted 3,5-bis(arylidene)-4-piperidones as potential anti-hepatoma and anti-inflammation agents by inhibiting NF-кB activation” (Journal of Enzyme Inhibition and Medicinal Chemistry, 2021).

Key:
SMMC-7721 = experiment: Modified MTT cytotoxicity assay, SMMC-7721; type: cell-based, Human; conditions: for IC50: Homo sapiens, SMMC-7721, 24 h, MTT, 24 h incubation, three replicates; for SI (selectivity index) SMMC-7721: quotient of IC50 for normal (LO2) and malignant (SMMC-7721) cells
Protocol: (§1) The HepG2, SMMC-7721, and LO2 cell lines were maintained at 37 °C, 5% humidified CO2, and 95% atmosphere. Dulbecco's Modified Eagle (DMEM) medium containing 10% foetal bovine serum (FBS) was used for culturing the HepG2 cell line; meanwhile, Roswell Park Memorial Institute (RPMI) 1640 medium containing 10% FBS was used for culturing other cell lines (SMMC-7721, LO2). The HepG2, SMMC-7721 and LO2 cells were seeded in a 96-well plate in 200 μL of medium per well at a density of approximately 8 × 10^3 cells/well and cultured for 24 h, followed by incubation in an incubator of indicated compounds with successive concentrations (10, 5, 2.5, 1.25, 0.625, 0.3125 μg/mL) for 24 h. In the control group, cells were only cultured with culture media. After the media were removed, 20 μL of MTT (5 mg/mL) was added, then cells were incubated for 4 h at 37 °C. […] GraphPad Prism 5 software was used to calculate their IC50 values. Every IC50 value was the average of three replicates. Doxorubicin (DOX) and curcumin were used as positive controls.

A2780 = experiment: Modified MTT cytotoxicity assay, A2780; conditions: for IC50: Homo sapiens, A2780, read-out: Cytotoxicity IC50 A2780, MTT, ovarian cancer cell line; for SI (selectivity index) A2780: quotient of IC50 for normal (HHL-5) and malignant (A2780) cells
[1] = Modified MTT cytotoxicity assay, normal heptical cell line HHL-5; conditions: human, HHL-5 cells (normal hepatic cell line)
Protocol: (§3) To further verify the anti-tumour activity, one human non-small cell lung cancer cell line (A549), one human ovarian cancer cell line (A2780), and one human normal heptical cell line (HHL-5) were screened by BAPs (4–30) using a modified MTT assay (Supporting Information). DOX and curcumin were selected as positive controls.
(§4) The optical density (OD) value of each well was measured on a
(§5) multi-well plate reader (TECAN, Mӓnnedorf, Switzerland ) at 570 nm.
(§6) Every IC 50 value was the average of three replicates.
(§7) Doxorubicin (DOX) and Curcumin were used as positive controls.

HepG2 = experiment: Modified MTT cytotoxicity assay, HepG2; type: cell-based, Human; conditions: for IC50: Homo sapiens, HepG2, 24 h, MTT, 24 h incubation, three replicates, read-out: Cytotoxicity IC50 HepG2; for SI (selectivity index) HepG2: quotient of IC50 for normal (LO2) and malignant (HepG2) cells
Protocol: as §1

[2] = Modified MTT cytotoxicity assay, normal heptical cell line LO2; type: cell-based, human; conditions: human, LO2 cells (normal hepatic cell line), 24 h incubation
Protocol: as §1

TNF-α = experiment: ELISA of TNF-α release in LPS-stimulated RAW264.7 cells; type: cell-based, mouse; conditions: Mus musculus, RAW264.7, BAPs (5 μM) + LPS (1 μg/mL), RAW264.7, ELISA; read-out: Inhibition rate TNF-α
Protocol: (§2) We tested by inhibiting the secretion of TNF-α and IL-6 to better evaluated the anti-inflammatory effects of BAPs. […] Under the stimulation of LPS (1.0 μg/mL) with RAW264.7 cells, the release of TNF-α and IL-6 was detected. Besides, after treated with BAPs (5.0 μM) and LPS (1.0 μg/mL), the release of TNF-α and IL-6 was measured with an ELISA kit (eBioScience, San Diego, California), respectively. In general terms, pyrrolidine dithiocarbamate (PDTC, 30 μM) or BAP (5.0 μM) was used to pretreat cells for 2 h, respectively. Then, LPS (1.0 μg/mL) was added and cells were incubated for another 22 h. Finally, the culture media were centrifuged at 1000 rpm for 10 min, and the expression levels of TNF-α and IL-6 were determined by ELISA.

RAW264.7 cell = experiment: MTT toxicity pre-experiment on RAW264.7 macrophagocyte; type: cell-based, mouse; conditions: Mus musculus, RAW264.7, BAPs 5 μM, read-out: Survival rate RAW264.7 cell
Protocol: Lipopolysaccharide (LPS) is a key constituent of Gram-negative bacterial endotoxin, which is used to induce an inflammatory response in corresponding inflammatory cells. TNF-α and IL-6 are two kinds of representative pro-inflammatory factors, which produced by LPS-stimulated RAW264.7 macrophage. In our pre-experiments, the toxicity against RAW264.7 macrophagocyte for all title compounds was tested by the MTT assay, and the results were listed in Table 2. The survival rates were above 80% for all BAPs (4-30) at the concentration of 5.0 μM.

A549 = experiment: Modified MTT cytotoxicity assay, A549; conditions: for IC50: Homo sapiens, A549, read-out: Cytotoxicity IC50 A549, MTT, non-small cell lung cancer cell line; for SI (selectivity index) A549: quotient of IC50 for normal (HHL-5) and malignant (A549) cells
IL-6 = experiment: ELISA of IL-6 release in LPS-stimulated RAW264.7 cells; type: cell-based, mouse; conditions: Mus musculus, RAW264.7, BAPs (5 μM) + LPS (1 μg/mL), RAW264.7, ELISA; read-out: Inhibition rate IL-6
Protocol: as §2

in vitro = conditions: human
Protocol: as §3, §4, §5, §6, §7

Structure (SMILES)	IC50 (SMMC-7721) [µM]	SI (selectivity index) SMMC-7721 (SMMC-7721)	IC50 (A2780) [µM]	SI (selectivity index) A2780 (A2780)	IC50 [1] [µM]	IC50 (HepG2) [µM]	SI (selectivity index) HepG2 (HepG2)	melting point [°C]	IC50 at 24 h [2] [µM]	inhibition at 5 µM (TNF-α) [%]	viability at 5 µM (RAW264.7 cell) [%]	IC50 (A549) [µM]	SI (selectivity index) A549 (A549)	inhibition at 5 µM (IL-6) [%]	IC50 (in vitro) [µM]	SI (selectivity), bound stated for A549 and A2780 together (A549; A549 and A2780 vs HHL-5)
O=C1/C(=C/c2cccc(C(F)(F)F)c2)CN(S(=O)(=O)c2ccc(Br)cc2)C/C1=C\c1cccc(C(F)(F)F)c1 [BAP 19]	7.6 ± 0.4	1.4	0.21 ± 0.03	64.8	13.6 ± 0.5	6.5 ± 0.2	1.7	135 to 137	11 ± 0.2	49.2 ± 3.7	81.9 ± 0.6	0.12 ± 0.01	113.3	56.3 ± 1.3		
O=C1/C(=C/c2ccccc2C(F)(F)F)CN(S(=O)(=O)c2ccc(Br)cc2)C/C1=C\c1ccccc1C(F)(F)F [BAP 10]	4.7 ± 0.1	3.6	2.34 ± 0.39	6.2	14.5 ± 0.1	14.7 ± 0.1	1.2	197 to 199	17 ± 0.4	59.2 ± 2.8	83.8 ± 2.9	5.01 ± 0.45	2.9	67.8 ± 3.2		
O=C1/C(=C/c2cccc(C(F)(F)F)c2)CN(S(=O)(=O)c2ccccc2)C/C1=C\c1cccc(C(F)(F)F)c1 [BAP 13]	5.7 ± 0.1	1.8	0.16 ± 0.01	18.1	2.9 ± 0.2	3.5 ± 0.1	3.1	151 to 153	10.1 ± 0.4	56.3 ± 2.1	82.5 ± 1.3	0.25 ± 0.01	11.6	48.9 ± 2.9		
O=C1/C(=C/c2cccc(C(F)(F)F)c2)CN(S(=O)(=O)c2ccc([N+](=O)[O-])cc2)C/C1=C\c1cccc(C(F)(F)F)c1 [BAP 15]	5 ± 0.1	2.5	0.14 ± 0.02	37.1	5.2 ± 0.3	2.7 ± 0.1	4.7	196 to 198	12.6 ± 0.1	62.1 ± 0.7	81.9 ± 1.2	0.13 ± 0.02	40.0	60.8 ± 4.2		
COc1cccc2c1C(=O)c1c(O)c3c(c(O)c1C2=O)C[C@@](O)(C(=O)CO)C[C@@H]3O[C@H]1C[C@H](N)[C@H](O)[C@H](C)O1 [DOX, Doxorubicin, reference compound]	~1.7	5.2	0.19 ± 0.01	64.2		~1.3	6.8		8.9 ± 0.5			0.29 ± 0.07	42.1		12.2 ± 0.4	> 40
